{"source": "patent US12150933B2", "about": "“IL-8 inihibitors for use in the treatment of some urological disorders” (DOMPÉ FARMACEUTICI S.P.A., priority 2015, dated 2024)", "key": {"[1]": {"tested_on": "CYP-induced cystitis", "assay": "Microscopic examination of urinary bladders after chronic preventive administration", "assay_type": "in vivo, rat", "conditions": "12 hours before and twice per day from first day of CYP for 7 days", "excerpt": "At the end of the study, the urinary bladders were opened, placed in 10% buffered formalin and stored at room temperature until completion of hystomorphological analysis (see Example 6 below).\nAt the end of the efficacy study of chronic preventive administration, the urinary bladders were opened, placed in 10% buffered formalin and stored at room temperature until hystomorphological analysis.\nTreatment with Compd. […] 1."}, "[2]": {"tested_on": "CYP-induced visceral pain", "assay": "Chronic preventive treatment in CYP-induced visceral pain model in rats; comparison with Mesna", "assay_type": "in vivo, rat", "conditions": "7 mg/kg twice daily p.o. for 7 days", "description": "The effect of chronic preventive administration of Compd. 1 in a visceral pain model induced by repeated administration of cyclophosphamide (CYP) in conscious rats was evaluated.\nThe oral dose of 7 mg/kg of Compd. 1 was chosen on the basis of previous evaluations. Compd. 1 or vehicle was orally administered to animals twice daily (according to the PK profile of the molecule) for 7 days. Mesna_or vehicle was intraperitoneally administered several times a day for 3 days (when CYP was administered).\nRepeated treatment with CYP (75 mg/kg i.p. for 3 times, every 3rd day), induced a strong decrease in withdrawal thresholds to noxious stimulus measured at the level of low abdomen and hind-paws. Nociceptive hypersensitivity was evaluated. In the control group, nociceptive thresholds of abdomen and hind-paws were not altered after the treatment with vehicle.\nBehavioral testing was performed at 4 different times: • before CYP administration (in order to acquire basal values) • after CYP administration and before treatment with the tested compound, to verify the pathology (in order to acquire pre-treatment values) • after treatment, 42 or 48 hours from the last administration of Compd. 1 or Mesna."}, "[3]": {"tested_on": "CYP-induced cystitis", "assay": "Cystometrographic recordings in conscious rats with CYP-induced cystitis", "assay_type": "in vivo, rat", "conditions": "for bladder volume capacity (BVC): 24 hours after CYP 175 mg/kg i.p.", "description": "Female Sprague Dawley rats (Crl:CD(SD)BR, 250-350 g bw) from Charles River Italy were used in these experiments. Animals were housed with free access to food and water and maintained on a forced 12 hours light-dark cycle at 22-24° C. for at least one week before the experiments were carried out.\nRats, anaesthetized with equithensin solution (2 ml/kg i.p.), were placed in a supine position and an approximately 10 mm midline incision was made in the shaved and cleaned abdominal wall. The urinary bladder was gently freed from adhering tissues, emptied and then cannulated, via an incision at the dome, with a polyethylene cannula (Portex, ID 0.58 mm, OD 0.96 mm), which was permanently sutured with silk thread. The cannula was exteriorized through a subcutaneous tunnel in the retroscapular area, where it was connected with a plastic adapter, in order to avoid the risk of removal by the animal.\nFor drugs testing, rats were utilized one day after catheter implantation at about 24 hours after administrations CYP.\nOn the day of the experiment, the rats (fasted overnight) were placed in Bollman's cages; after a stabilization period of 20 min, the free tip of the cannula was connected by a T-shape tube to a pressure transducer and to a peristaltic pump for a continuous infusion of saline solution (room temperature) into the urinary bladder, at the constant rate of 0.05 ml/min. This procedure, termed cystometry, allows the detection of continuous cycles of filling and voiding of the bladder named cystometrograms.\nFrom the cystometrograms acquired by the Biopac System and recorded on a PC the Bladder Volume Capacity (BVC) parameter was calculated as volume capacity, defined as volume (in ml) infused into the bladder and necessary to induce detrusor contraction followed micturition.\nBasal BVC was evaluated as mean values from the cystometrograms recorded in 30-60 minutes of time prior the treatment (“BASAL”). Then the bladder infusion was stopped, the animals were treated orally with the test compound or vehicle and, after restarting continuous bladder filling with saline for 4 or 5 hours, BVC values after administration were collected.\nBVC parameters were recorded from the cystometrogram over a 4/5 hours period post-dose."}, "[4]": {"tested_on": "CYP-induced urinary bladder cystitis", "assay": "Microscopic examination of urinary bladders after chronic administration (histology, immunohistochemistry)", "assay_type": "in vivo, rat", "excerpt": "At the end of the efficacy study of chronic administration, the urinary bladders were opened, placed in 10% buffered formalin and stored at room temperature until hystomorphological analysis.\nTreatment with Compd. […] The induced lesions consisted of apoptosis, erosions of the mucosa, mitoses of the mucosal cells, mucosal hyperplasia, infiltration of inflammatory cells and micro-hemorrhages. Caspase 3 and caspase 9 expression (markers of apoptosis) as well as Ki67 expression (marker for cell proliferation) were reduced in the group treated with Compd. 1."}, "[5]": {"tested_on": "KC/GRO-α", "assay": "KC/GRO-α plasma content after preventive treatment in CYP-induced cystitis model in rats", "assay_type": "in vivo, rat", "conditions": "day 9; 20 mg/kg p.o. 12 hours before first CYP, then 7 mg/kg p.o. twice a day for 7 days", "description": "The effect of chronic preventive administration of Compd. 1 on KC/GRO-α plasma content in a CYP-induced cystitis model in conscious rats was evaluated.\nTo elicit cystitis, rats received intraperitoneal (i.p.) injections of CYP (75 mg/Kg every third day for three times). A single high dose of Compd. 1 (20 mg/kg) was orally administered 12 hours before the first CYP treatment; subsequently Compd. 1 (7 mg/kg p.o.) was administered twice a day for 7 days (from day 1 to day 7 from the first CYP administration). The oral dose of 7 mg/kg of Compd. 1 was chosen on the basis of previous evaluations. Animals blood was collected at day 7 (the same day of the last CYP treatment) at day 8 (about 24 hrs after last CYP administration) and at day 9 (about 48 hrs after last CYP administration). Each experimental group was composed of 10 animals, 10 animals treated with CYP+vehicle compound, 10 animals treated with CYP+Compd. 1, and 10 animals (sham) treated with CYP vehicle+vehicle compound.\nThe same animal was subjected to 3 blood serial samplings in order to evaluate the time-course of inflammatory mediators content. After thawing and centrifuge to remove any aggregates and lipid residues that could interfere with the reading, the samples were evaluated through quantitative analysis of KC/GRO-α."}, "[6]": {"tested_on": "CYP-induced cystitis", "assay": "Follow-up up to 10 days after discontinuation of treatment (body weight, survival)", "assay_type": "in vivo"}, "[7]": {"assay": "Pharmacokinetic profile after oral administration", "assay_type": "in vivo"}, "[8]": {"conditions": "immunohistochemistry, versus CYP group"}}, "note": "Where “and” joins values, the source holds several entries; their conditions need not be identical. Equal entries are not always repeated. Entries after “also recorded” stand apart in the source; their conditions may differ."}
{"molecule": "C[C@H](C(=O)O)c1ccc(Nc2nc(C(F)(F)F)cs2)cc1", "note": "[Compd. 1, (2S)-2-(4-{[4-(trifluoromethyl)-1,3-thiazol-2-yl]amino}phenyl) propanoic acid]", "values": [{"measurement": "inflammatory, degenerative, proliferative and hemorrhagic lesions caused by CYP", "setting": "[1]", "value": "clearly reduced the inflammatory, degenerative, proliferative and hemorrhagic lesions caused by CYP"}, {"measurement": "nociceptive hypersensitivity in hind-paws plantar surface", "setting": "[2]", "value": "completely reversed the nociceptive hypersensitivity in hind-paws plantar surface"}, {"measurement": "withdrawal thresholds in the abdomen", "setting": "[2]", "value": "almost complete recovery of withdrawal thresholds in the abdomen"}, {"measurement": "bladder volume capacity (BVC)", "setting": "[3]; 10 mg/kg oral", "value": "did not induce any changes of BVC"}, {"measurement": "bladder volume capacity (BVC)", "setting": "[3]; 20 mg/kg oral", "value": "moderate increase of BVC statistically different from vehicle and pre-drug treatment at 4 and 5 hours"}, {"measurement": "bladder volume capacity (BVC)", "setting": "[3]; 30 mg/kg oral", "value": "sustained increase of BVC"}, {"measurement": "increase of BVC", "setting": "[3]; 30 mg/kg oral, significant at 3 and 4 hours after treatment", "value": "up to +40%"}, {"measurement": "MP", "setting": "[3]; 20 and 30 mg/kg oral", "value": "inactive on MP"}, {"measurement": "inflammatory, degenerative and proliferative lesions of the urinary bladder", "setting": "[4]; 7 mg/kg oral twice a day for 6 days after CYP", "value": "clearly reduced or reversed the inflammatory, degenerative and proliferative lesions"}, {"measurement": "Incidence: Apoptosis epithelial cell, urinary bladder", "setting": "[4]; animals of 10/group, 7 mg/kg oral twice a day for 6 days after CYP", "value": "3/10 and 3"}, {"measurement": "Caspase 3 and caspase 9 expression (markers of apoptosis)", "setting": "[4]; [8]", "value": "reduced"}, {"measurement": "Ki67 expression (marker for cell proliferation)", "setting": "[4]; [8]", "value": "reduced; also recorded: lower grade of positivity"}, {"measurement": "GRO-α/KC blood levels", "setting": "[5]", "value": "significantly reduces GRO-α/KC blood levels at day 9"}, {"measurement": "survival", "setting": "[6]; vehicle-treated 50%", "value": 65, "unit": "%"}, {"measurement": "body weight recovery", "setting": "[6]; versus vehicle-treated animals", "value": "body weight recovery faster than vehicle-treated animals"}, {"measurement": "distribution in the tissues", "setting": "[7]; in vivo", "value": "poorly distributed in the tissues"}, {"measurement": "elimination from plasma", "setting": "[7]; in vivo", "value": "gradually eliminated from plasma"}, {"measurement": "oral bioavailability", "setting": "[7]; in vivo, po", "value": "excellent oral bioavailability"}, {"measurement": "absorption", "setting": "[7]; oral route", "value": "rapid absorption; also recorded: well absorbed by the oral route"}, {"measurement": "time of maximum concentration in plasma after administration", "setting": "[7]; plasma", "value": 2, "unit": "h"}, {"measurement": "Cmax", "setting": "[7]; plasma, oral, read-out: maximum concentration (Cmax) in plasma", "value": "47400 ± 25400", "unit": "ng/mL"}]}
